In brackets after ≈: the same amount, converted by molar mass.
Experiments:
[1] = Fraction unbound in rat plasma at 5 uM after 4.5 hrs by LC-MS/MS analysis; assay type: ADME, cell-free
[2] = molecular target: T1, 5-hydroxytryptamine receptor 6 (Homo sapiens, UniProt P50406); assay: Antagonist activity at human 5-HT6 receptor expressed in 1321N1 cells assessed as seretonin-induced cAMP by HTRF assay; assay type: functional, cell-based
[3] = Ratio of drug level in brain to plasma in Swiss mouse at 5 mg/kg, sc; assay type: ADME, organism-based; conditions: read-out: BPR
Cytochrome P450 1A2 = molecular target: T2, Cytochrome P450 1A2 (Homo sapiens, UniProt P05177); assay: Inhibition of human CYP1A2 by LC-MS analysis; assay type: ADME
T2 sequence (P05177 whole entry): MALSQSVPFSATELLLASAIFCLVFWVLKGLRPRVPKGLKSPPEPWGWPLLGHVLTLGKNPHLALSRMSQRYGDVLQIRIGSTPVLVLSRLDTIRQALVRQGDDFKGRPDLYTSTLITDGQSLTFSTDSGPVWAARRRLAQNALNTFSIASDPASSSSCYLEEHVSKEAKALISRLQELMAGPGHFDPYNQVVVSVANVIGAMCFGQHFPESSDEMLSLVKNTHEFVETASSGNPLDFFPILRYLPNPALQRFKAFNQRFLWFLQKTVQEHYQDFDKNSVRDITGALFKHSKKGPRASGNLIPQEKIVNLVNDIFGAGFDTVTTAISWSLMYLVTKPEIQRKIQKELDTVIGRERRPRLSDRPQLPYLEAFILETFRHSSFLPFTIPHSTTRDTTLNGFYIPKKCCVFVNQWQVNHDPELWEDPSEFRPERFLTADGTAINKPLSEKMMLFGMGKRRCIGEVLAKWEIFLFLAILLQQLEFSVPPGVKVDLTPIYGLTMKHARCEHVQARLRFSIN

Cytochrome P450 2C19 = Cytochrome P450 2C19 (Homo sapiens, UniProt P33261); assay: Inhibition of human CYP2C19 by LC-MS analysis; assay type: ADME
Cytochrome P450 2C19, sequence (P33261 whole entry): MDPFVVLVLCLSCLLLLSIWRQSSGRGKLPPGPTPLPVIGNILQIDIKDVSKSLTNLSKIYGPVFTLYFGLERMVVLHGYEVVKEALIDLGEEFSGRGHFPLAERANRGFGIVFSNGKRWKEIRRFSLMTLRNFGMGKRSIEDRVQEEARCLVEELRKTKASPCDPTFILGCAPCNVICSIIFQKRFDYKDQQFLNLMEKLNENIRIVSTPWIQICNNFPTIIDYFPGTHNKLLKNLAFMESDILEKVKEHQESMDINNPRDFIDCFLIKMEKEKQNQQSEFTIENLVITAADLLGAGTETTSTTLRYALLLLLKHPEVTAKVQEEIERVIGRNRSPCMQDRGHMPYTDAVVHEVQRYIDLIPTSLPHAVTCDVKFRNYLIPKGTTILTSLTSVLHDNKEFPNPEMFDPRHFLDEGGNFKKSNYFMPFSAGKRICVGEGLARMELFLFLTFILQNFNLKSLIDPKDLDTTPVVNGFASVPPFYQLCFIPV

[4] = Chemical stability of compound in DMSO assessed as compound remaining at 10 mg/ml after 1 day at room temperature; assay type: physicochemical; conditions: read-out: Stability
[5] = Fraction unbound in rat brain at 5 uM after 5 hrs by LC-MS/MS analysis; assay type: ADME, tissue-based
[6] = Chemical stability of compound in 0.1N NaOH assessed as compound remaining at 10 mg/ml after 2 days; assay type: physicochemical; conditions: read-out: Stability
[7] = Chemical stability of compound in 0.1N NaOH assessed as compound remaining at 10 mg/ml after 1 day; assay type: physicochemical; conditions: read-out: Stability
[8] = Fraction unbound in mouse plasma at 5 uM after 4.5 hrs by LC-MS/MS analysis; assay type: ADME, cell-free
Cytochrome P450 2C8 = molecular target: T3, Cytochrome P450 2C8 (Homo sapiens, UniProt P10632); assay: Inhibition of human CYP2C8 by LC-MS analysis; assay type: ADME
T3 sequence (P10632 whole entry): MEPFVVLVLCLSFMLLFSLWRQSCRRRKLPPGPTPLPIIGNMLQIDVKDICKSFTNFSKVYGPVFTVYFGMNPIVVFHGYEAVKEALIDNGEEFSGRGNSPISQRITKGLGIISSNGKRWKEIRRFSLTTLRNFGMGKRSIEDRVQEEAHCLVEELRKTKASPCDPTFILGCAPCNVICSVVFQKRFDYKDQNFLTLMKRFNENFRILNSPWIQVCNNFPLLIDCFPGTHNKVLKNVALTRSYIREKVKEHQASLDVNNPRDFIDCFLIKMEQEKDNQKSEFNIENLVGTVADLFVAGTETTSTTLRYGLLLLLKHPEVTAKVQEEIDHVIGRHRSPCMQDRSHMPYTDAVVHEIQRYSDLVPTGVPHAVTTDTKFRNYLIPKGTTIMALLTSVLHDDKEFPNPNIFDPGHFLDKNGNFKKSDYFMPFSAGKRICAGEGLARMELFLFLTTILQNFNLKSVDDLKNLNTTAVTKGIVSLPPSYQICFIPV

human MDR1 = assay: Permeability across apical to basolateral in MDCK expressing human MDR1 at 5 uM by LC-MS/MS method; assay type: ADME, cell-based, Canis lupus familiaris; conditions: dog, read-out: permeability
[9] = molecular target: T4, 5-hydroxytryptamine receptor 7 (Homo sapiens, UniProt P34969); assay: Agonist activity at human wild-type 5-HT7 receptor expressed in HEK cells assessed as cAMP by HTRF assay; assay type: functional, cell-based, HEK293
T4 sequence (P34969 whole entry): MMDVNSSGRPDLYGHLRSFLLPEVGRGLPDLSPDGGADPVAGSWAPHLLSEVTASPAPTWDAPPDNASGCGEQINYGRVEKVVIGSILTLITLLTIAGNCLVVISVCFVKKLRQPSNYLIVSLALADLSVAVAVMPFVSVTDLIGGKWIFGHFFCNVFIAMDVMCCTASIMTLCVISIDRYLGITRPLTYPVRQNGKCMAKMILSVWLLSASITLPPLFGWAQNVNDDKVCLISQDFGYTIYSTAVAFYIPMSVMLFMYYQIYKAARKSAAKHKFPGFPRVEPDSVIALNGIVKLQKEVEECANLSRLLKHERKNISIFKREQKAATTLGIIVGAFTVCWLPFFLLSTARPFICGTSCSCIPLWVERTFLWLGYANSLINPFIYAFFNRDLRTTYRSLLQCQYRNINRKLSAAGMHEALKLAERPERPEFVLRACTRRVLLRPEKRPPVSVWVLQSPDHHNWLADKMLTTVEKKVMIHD

[10] = Cmax in Swiss mouse brain at 5 mg/kg, sc; assay type: ADME, organism-based; set-up: dose 5 mg/kg, route subcutaneous
[11] = Chemical stability of compound in buffer at pH 7.4 assessed as compound remaining at 10 mg/ml after 2 days; assay type: physicochemical; conditions: read-out: Stability
[12] = Chemical stability of compound in DMSO assessed as compound remaining at 10 mg/ml after 2 days at room temperature; assay type: physicochemical; conditions: read-out: Stability
[13] = molecular target: T4, 5-hydroxytryptamine receptor 7; assay: Antagonist activity at human wild-type 5-HT7 receptor expressed in HEK cells assessed as seretonin-induced cAMP by HTRF assay; assay type: functional, cell-based, HEK293
[14] = Chemical stability of compound in buffer at pH 7.4 assessed as compound remaining at 10 mg/ml after 1 day; assay type: physicochemical; conditions: read-out: Stability
[15] = Fraction unbound in human plasma at 5 uM after 4.5 hrs by LC-MS/MS analysis; assay type: ADME, cell-free
[16] = molecular target: T1, 5-hydroxytryptamine receptor 6; assay: Agonist activity at human 5-HT6 receptor expressed in 1321N1 cells assessed as cAMP by HTRF assay; assay type: functional, cell-based
[17] = Chemical stability of compound in 0.1N HCL assessed as compound remaining at 10 mg/ml after 1 day; assay type: physicochemical; conditions: read-out: Stability
[18] = Kinetic solubility of compound in phosphate buffer at pH 7.4 for 4 hrs by UPLC/UV analysis; assay type: physicochemical; conditions: read-out: Kinetic_solubility
[19] = Chemical stability of compound in DMSO assessed as compound remaining at 10 mg/ml after 24 days at room temperature under air; assay type: physicochemical; conditions: read-out: Stability
HepG2 = assay: Cytotoxicity against human HepG2 cells; assay type: cell-based
[20] = Chemical stability of compound in 0.1N HCL and 0.5% H2O2 assessed as compound remaining at 10 mg/ml after 1 day; assay type: physicochemical; conditions: read-out: Stability
Cytochrome P450 2C9 = Cytochrome P450 2C9 (Homo sapiens, UniProt P11712); assay: Inhibition of human CYP2C9 by LC-MS analysis; assay type: ADME
Cytochrome P450 2C9, sequence (P11712 whole entry): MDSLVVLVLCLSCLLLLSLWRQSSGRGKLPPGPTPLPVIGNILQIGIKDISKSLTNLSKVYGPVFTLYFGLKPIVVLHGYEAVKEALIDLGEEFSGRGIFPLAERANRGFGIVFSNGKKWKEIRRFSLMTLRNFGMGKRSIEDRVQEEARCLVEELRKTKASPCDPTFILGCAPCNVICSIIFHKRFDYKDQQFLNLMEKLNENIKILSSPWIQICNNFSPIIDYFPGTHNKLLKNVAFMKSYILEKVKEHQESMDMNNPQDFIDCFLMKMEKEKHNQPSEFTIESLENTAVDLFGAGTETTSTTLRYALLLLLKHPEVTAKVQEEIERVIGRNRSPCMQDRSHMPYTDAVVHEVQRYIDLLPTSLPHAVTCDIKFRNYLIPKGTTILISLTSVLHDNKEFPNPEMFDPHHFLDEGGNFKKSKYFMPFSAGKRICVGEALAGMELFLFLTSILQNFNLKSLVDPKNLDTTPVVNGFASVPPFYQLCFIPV

T1 sequence (P50406 whole entry): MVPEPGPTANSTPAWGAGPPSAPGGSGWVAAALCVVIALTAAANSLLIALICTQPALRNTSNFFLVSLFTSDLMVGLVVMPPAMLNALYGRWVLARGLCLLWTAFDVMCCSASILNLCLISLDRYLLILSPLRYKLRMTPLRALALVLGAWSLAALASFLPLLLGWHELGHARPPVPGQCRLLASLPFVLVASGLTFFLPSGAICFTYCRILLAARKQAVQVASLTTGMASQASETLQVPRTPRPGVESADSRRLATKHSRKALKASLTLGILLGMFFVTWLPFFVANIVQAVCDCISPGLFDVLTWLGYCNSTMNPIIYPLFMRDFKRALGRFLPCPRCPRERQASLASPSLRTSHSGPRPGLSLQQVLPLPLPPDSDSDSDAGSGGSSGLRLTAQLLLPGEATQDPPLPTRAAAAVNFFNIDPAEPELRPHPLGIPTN

- fraction unbound at 4.5 h, 5 µM [1]: 0.239
- IC50 [2]: > 5.01 µM
- Kp [3]: 23
- IC50 (Cytochrome P450 1A2): > 10 µM
- IC50 (Cytochrome P450 2C19): > 10 µM
- remaining at 24 h, 10 mg/ml [4]: 100%
- fraction unbound at 5 h, 5 µM [5]: 0.028
- remaining at 48 h, 10 mg/ml [6]: 100%
- remaining at 24 h, 10 mg/ml [7]: 100%
- fraction unbound at 4.5 h, 5 µM [8]: 0.212
- IC50 (Cytochrome P450 2C8): > 10 µM
- Papp A→B at 5 µM (human MDR1): 3.5 ×10⁻⁶ cm/s
- EC50 [9]: > 5.01 µM
- Cmax [10]: 16 µM
- remaining at 48 h, 10 mg/ml [11]: 100%
- remaining at 48 h, 10 mg/ml [12]: 100%
- IC50 [13]: > 5.01 µM
- remaining at 24 h, 10 mg/ml [14]: 100%
- fraction unbound at 4.5 h, 5 µM [15]: 0.421
- EC50 [16]: > 5.01 µM
- remaining at 24 h, 10 mg/ml [17]: 100%
- solubility kinetic at 4 h [18]: 764 µM (≈ 198 µg/mL)
- remaining at 576 h, 10 mg/ml [19]: 100%
- remaining at 24 h, 10 mg/ml [20]: 100%
- IC50 (Cytochrome P450 2C9): > 10 µM
SMILES: CC(C)NCC(O)COc1cccc2ccccc12 (stereo unspecified) [PROPRANOLOL]
- EC20 (HepG2): > 100 µM
